Assay results published in ChEMBL document CHEMBL1201862, “PubChem BioAssay data set” (2004).
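Step 1: Grow cells in 96-well plates. Step 2: Expose to compound for 48 hours at 5 concentrations. Step 3: Interpolate endpoints linearly; if unreached, use highest concentration. GI50 = concentration required for 50% inhibition of growth.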 The source made the active and inactive calls. No stated cut-off is given here; in the data, active = GI50 up to about 1.1 µM and inactive = higher.

What was measured:
Experiment in all cases: growth of human tumour cells (NCI), 48 h
HT-29 = test system: HT-29
CCRF-CEM = test system: CCRF-CEM
CAKI-1 = test system: CAKI-1
NCI-H460 = test system: NCI-H460
UACC-257 = test system: UACC-257
A549 = test system: A549
TK-10 = test system: TK-10
K562 = test system: K562
KM12 = test system: KM12
SF-295 = test system: SF-295
HOP-62 = test system: HOP-62
COLO 205 = test system: COLO 205
SF-268 = test system: SF-268
NCI-H23 = test system: NCI-H23
SNB-75 = test system: SNB-75
SK-MEL-28 = test system: SK-MEL-28
SR = test system: SR

Measured: GI50

O=C1OC(=O)C2C1C1(c3ccccc3)OC2(c2ccccc2)c2c(Br)c(Br)c(Br)c(Br)c21 (stereo not given)
inactive: HT-29 > 100 µM | CCRF-CEM > 100 µM | CAKI-1 > 100 µM | NCI-H460 > 100 µM | UACC-257 > 100 µM | A549 > 100 µM | TK-10 > 100 µM | K562 > 100 µM | KM12 > 100 µM | SF-295 > 100 µM | HOP-62 > 100 µM | COLO 205 > 100 µM | SF-268 > 100 µM | NCI-H23 > 100 µM | SNB-75 > 100 µM

O=c1[nH]c(Br)nc2c(Br)c[nH]c12
inactive: HT-29 > 100 µM | CCRF-CEM > 100 µM | CAKI-1 > 100 µM | SK-MEL-28 > 100 µM | NCI-H460 > 100 µM | UACC-257 > 100 µM | A549 > 100 µM | TK-10 > 100 µM | K562 > 100 µM | KM12 > 100 µM | SF-295 > 100 µM | HOP-62 > 100 µM | COLO 205 > 100 µM | SF-268 > 100 µM | NCI-H23 > 100 µM | SNB-75 > 100 µM

CCOCc1cc(=O)c2c(OC)cc3c(c2o1)CCC(C)(C)O3
inactive: SR > 100 µM | HT-29 > 100 µM | CCRF-CEM > 100 µM | SK-MEL-28 > 100 µM | NCI-H460 > 100 µM | UACC-257 > 100 µM | A549 > 100 µM | TK-10 > 100 µM | K562 > 100 µM | KM12 > 100 µM | SF-295 > 100 µM | HOP-62 > 100 µM | NCI-H23 > 100 µM | SNB-75 > 100 µM

O=C(O)c1cc(=O)c2[nH]c3ccccc3c2s1
inactive: CCRF-CEM > 100 µM | CAKI-1 > 100 µM | SK-MEL-28 > 100 µM | NCI-H460 > 100 µM | UACC-257 > 100 µM | A549 > 100 µM | TK-10 > 100 µM | K562 > 100 µM | KM12 > 100 µM | SF-295 > 100 µM | HOP-62 > 100 µM | COLO 205 > 100 µM | SF-268 > 100 µM | NCI-H23 > 100 µM | SNB-75 41.4 µM

Nc1cc(=O)n(-c2ccccc2)c(=S)n1-c1ccccc1
inactive: HT-29 > 100 µM | CCRF-CEM > 100 µM | CAKI-1 > 100 µM | NCI-H460 > 100 µM | UACC-257 > 100 µM | A549 > 100 µM | TK-10 > 100 µM | K562 > 100 µM | KM12 > 100 µM | SF-295 > 100 µM | HOP-62 > 100 µM | COLO 205 > 100 µM | SF-268 > 100 µM | SNB-75 > 100 µM

COc1ccc2nccc(C3=CCC4CCN(C(=O)c5ccccc5)C3C4)c2c1 (stereo not given)
inactive: HT-29 > 100 µM | CCRF-CEM 99.8 µM | CAKI-1 > 100 µM | SK-MEL-28 > 100 µM | NCI-H460 > 100 µM | UACC-257 > 100 µM | A549 > 100 µM | TK-10 > 100 µM | K562 74.5 µM | KM12 > 100 µM | SF-295 > 100 µM | HOP-62 > 100 µM | COLO 205 > 100 µM | SF-268 > 100 µM | NCI-H23 > 100 µM | SNB-75 93.5 µM

N#Cc1cc(NC(=O)c2ccccc2)c(=O)n2c1[nH]c1ccccc12
inactive: HT-29 48.5 µM | CCRF-CEM 37.8 µM | CAKI-1 35.9 µM | SK-MEL-28 21.6 µM | NCI-H460 33 µM | UACC-257 33 µM | A549 24.5 µM | TK-10 22.2 µM | K562 31.7 µM | KM12 43.9 µM | SF-295 71 µM | HOP-62 24.5 µM | COLO 205 31.6 µM | SF-268 43.1 µM | NCI-H23 20 µM | SNB-75 25.9 µM

Cc1cc2c3ccccc3n3c2c2c1OC1(C)CCC(C2C1)C3(C)C (stereo not given)
inactive: SR > 25 µM | HT-29 > 25 µM | CCRF-CEM > 25 µM | SK-MEL-28 > 25 µM | NCI-H460 > 25 µM | A549 > 25 µM | TK-10 > 25 µM | K562 > 25 µM | KM12 > 25 µM | HOP-62 > 25 µM | COLO 205 > 25 µM | SF-268 > 25 µM

Cc1ccc(-n2c3nc(=O)n(C)c(=O)c-3nc3ccccc32)cc1
inactive: HT-29 3.54 µM | CCRF-CEM 17.3 µM | CAKI-1 21.9 µM | NCI-H460 3.33 µM | UACC-257 12.8 µM | A549 6.43 µM | TK-10 27.2 µM | K562 17 µM | KM12 17.3 µM | SF-295 11.2 µM | HOP-62 43.9 µM | COLO 205 4.47 µM | SF-268 35.7 µM | NCI-H23 1.56 µM | SNB-75 10.9 µM

Cc1nc(-n2nc(-c3ccccc3)cc2-c2ccccc2)sc1C(=O)CC(=O)C(=O)Nc1ccc(O)cc1
inactive: SR > 100 µM | HT-29 > 100 µM | CCRF-CEM > 100 µM | CAKI-1 > 100 µM | UACC-257 > 100 µM | A549 > 100 µM | TK-10 > 100 µM | K562 > 100 µM | KM12 > 100 µM | SF-295 > 100 µM | HOP-62 > 100 µM | COLO 205 > 100 µM | SF-268 > 100 µM | NCI-H23 > 100 µM | SNB-75 > 100 µM

CC(=O)O/N=C(/C)c1ccccc1O
inactive: HT-29 > 100 µM | CCRF-CEM > 100 µM | CAKI-1 > 100 µM | SK-MEL-28 > 100 µM | NCI-H460 > 100 µM | UACC-257 > 100 µM | A549 > 100 µM | TK-10 > 100 µM | K562 > 100 µM | KM12 > 100 µM | SF-295 > 100 µM | HOP-62 > 100 µM | COLO 205 > 100 µM | SF-268 > 100 µM | NCI-H23 > 100 µM | SNB-75 > 100 µM

COc1ccc2[nH]c3c(c2c1)CCN(C)CC3
inactive: HT-29 > 100 µM | CCRF-CEM > 100 µM | CAKI-1 > 100 µM | SK-MEL-28 > 100 µM | NCI-H460 > 100 µM | UACC-257 > 100 µM | A549 > 100 µM | TK-10 > 100 µM | K562 > 100 µM | KM12 > 100 µM | SF-295 > 100 µM | HOP-62 > 100 µM | COLO 205 > 100 µM | SF-268 > 100 µM | NCI-H23 > 100 µM | SNB-75 > 100 µM

C(=C1/CCCCC([n+]2ccccc2)=N1)/c1ccccc1
inactive: SR > 100 µM | HT-29 > 100 µM | CCRF-CEM > 100 µM | CAKI-1 > 100 µM | SK-MEL-28 > 100 µM | NCI-H460 > 100 µM | A549 > 100 µM | K562 > 100 µM | SF-295 > 100 µM | HOP-62 > 100 µM | COLO 205 > 100 µM | SF-268 > 100 µM | NCI-H23 > 100 µM | SNB-75 > 100 µM

O=[N+]([O-])c1ccc(C[P+](c2ccccc2)(c2ccccc2)c2ccccc2)cc1
inactive: SR 38.4 µM | HT-29 32.9 µM | CCRF-CEM 80 µM | SK-MEL-28 35.1 µM | NCI-H460 71.3 µM | UACC-257 16.1 µM | A549 > 100 µM | TK-10 56 µM | K562 70.8 µM | KM12 52.5 µM | SF-295 > 100 µM | HOP-62 > 100 µM | COLO 205 25.4 µM | NCI-H23 83.8 µM | SNB-75 35.9 µM

Nc1nc(OCc2ccccc2)c2nc[nH]c2n1 [6-O-BENZYLGUANINE]
inactive: HT-29 87.3 µM | CCRF-CEM 66.8 µM | CAKI-1 23.1 µM | SK-MEL-28 140 µM | NCI-H460 67.6 µM | UACC-257 91 µM | A549 73.8 µM | TK-10 47.1 µM | K562 86.5 µM | KM12 98.6 µM | SF-295 121 µM | HOP-62 51.6 µM | COLO 205 124 µM | SF-268 70 µM | NCI-H23 97.1 µM | SNB-75 24.8 µM

CC1(C)CC(=O)C=C(NC(=O)c2ccccc2)C1
inactive: HT-29 > 100 µM | CCRF-CEM > 100 µM | CAKI-1 > 100 µM | SK-MEL-28 > 100 µM | NCI-H460 > 100 µM | UACC-257 > 100 µM | A549 > 100 µM | TK-10 > 100 µM | K562 > 100 µM | KM12 > 100 µM | SF-295 > 100 µM | HOP-62 > 100 µM | COLO 205 > 100 µM | SF-268 > 100 µM | NCI-H23 > 100 µM | SNB-75 > 100 µM

Cc1ccc(S(=O)(=O)Nc2ccccc2C(C)(C)C)cc1
inactive: HT-29 16.2 µM | CCRF-CEM 21.4 µM | CAKI-1 18.7 µM | SK-MEL-28 19.7 µM | NCI-H460 18.6 µM | UACC-257 16.1 µM | A549 27.7 µM | TK-10 37.1 µM | K562 18 µM | KM12 17.2 µM | SF-295 13.7 µM | HOP-62 20 µM | NCI-H23 15.5 µM | SNB-75 35.9 µM

CC(C)(C=O)CC(C#N)/C(=N\NC(N)=O)C(=O)Nc1ccccc1C(N)=O (stereo not given)
inactive: SR > 100 µM | HT-29 > 100 µM | CCRF-CEM > 100 µM | CAKI-1 > 100 µM | SK-MEL-28 > 100 µM | NCI-H460 > 100 µM | UACC-257 > 100 µM | A549 > 100 µM | TK-10 > 100 µM | K562 > 100 µM | KM12 > 100 µM | SF-295 > 100 µM | HOP-62 > 100 µM | SF-268 > 100 µM | NCI-H23 > 100 µM
